Assay results reported in a melting point compilation (Tetko et al.; mined from patent text by program, amines drawn as free bases though some values may be those of a salt).

Row | melting point [°C] | Compound
1 | 132 | CC(C)CCCC(=O)OC1c2ccccc2C(=O)N1c1ccc2ccc(Cl)nc2n1 (stereo not given)
2 | 175 to 176 | O=C(O)CCC(=NO)c1ccc(-c2ccc(Br)cc2)cc1
3 | 40 to 42 | O=C(O)CCC(=O)CCS
4 | 165 to 166 | CN(C)CCCC(=O)Nc1nc2c(s1)-c1c(cnn1-c1ccccc1)CC2
5 | > 250 | CCOC(=O)CC[C@H](NC(=O)c1ccc(CCc2cnc3nc(NC(=O)C(C)(C)C)nc(O)c3c2)cc1)C(=O)OCC
6 | 69 to 75 | CCCCC(=O)N(C(=O)NC(=O)c1ccccc1[N+](=O)[O-])c1ccc(Oc2ncc(Cl)cn2)c(C)c1
7 | 184 to 186 | CC(C)COc1ccc(C(=O)O)cc1[N+](=O)[O-]
8 | 62 to 63.5 | CCCCCCCCCCCCCCCCC[C@H](C[C@H](O)[C@H](CC)C(=O)O)OCc1ccccc1
9 | 111 to 112 | CCOC(=O)CNc1ncccc1NC(=O)c1ccccc1Cl
10 | 181 to 182 | COc1cc(C)c(NC(=O)CC(C)(C)C)c(C)c1Cc1ccc(C(C)C)cc1
11 | 172 to 177 | COc1ccc([N+](=O)[O-])cc1NC(C)=O
12 | 140 | CC(C)(C)OC(=O)[C@@H]1CS[C@H](c2ccccc2)N1C(=O)CNC(=O)Nc1cccc(CC(=O)O)c1
13 | 129 | O=C(CI)NCCSC=CSCCNC(=O)CI
14 | 205 to 207 | C=CCN1CCN(CCC(=O)N2c3ccccc3C(=O)Nc3cccnc32)CC1
15 | 197 | CC(C)(C)C1CCCC=C1c1ccc(C(=O)O)cc1 (stereo not given)
16 | 192 to 193 | CCOC(=O)C=Cc1ccc(N[C@@H](CCC(N)=O)C(=O)O)cc1
17 | 122 | O=C(NC(CS)Cc1ccccc1)N1CCN(c2ccccc2)CC1 (single isomer, unassigned; (+))
18 | 184 to 186 | CCOC(=O)c1[nH]cnc1C(F)(F)F
19 | 158 to 159 | Cc1cccc(COc2cccc(OCc3coc(C4CCCCC4)n3)c2)c1C(=O)O
20 | 116 | O=C(CCc1cc(-c2ccccc2)nc2ccccc12)N1CCCC1
21 | 250 to 251 | COc1ccc(C(=O)Nc2ccccc2)cc1NS(=O)(=O)c1ccc(NC(C)=O)cc1
22 | 91 to 92 | C#CCCCOc1ccc(C=O)cc1OC
23 | 157 to 161 | CC(C)(C)NC(=O)c1ccccc1C(C(=O)C(C)(C)C)c1ccccc1 (stereo not given)
24 | 81 to 83 | CCOc1ccc(CCCOc2nn(C)cc2CC(=O)O)c(Oc2ccc(Cl)cc2Cl)n1
25 | 105 to 110 | CCCCC[C@H]1CC[C@H](c2ccc(NC(=O)OC)cc2)CC1
26 | 124 to 126 | COc1cc(N)c(Cl)cc1C(=O)NC1CCN(CC2CCN(C(=O)N(C)C)CC2)CC1
27 | 76 | CC(=O)SCC(=Cc1ccc2c(c1)OCO2)C(=O)NCCC(=O)OCc1ccccc1
28 | 196 to 198 | CC(=O)NCC1CN(c2ccc(NC=O)c(F)c2)C(=O)O1 (stereo not given)
29 | 46 to 49 | CC(CCN(C)c1ccccc1)=NO

The next lines start with the compound.

Row | Compound | melting point [°C]
30 | Cc1[nH]n(C2CCCC2)c2nc(-c3cccc4cccnc34)nc(=O)c1-2 | 242 to 244
31 | CCOC(=O)CC12CC(c3ccccc31)c1ccccc12 | 81 to 84
32 | S=C(Nc1ccccc1)c1ccccn1 | 45 to 46
33 | Fc1ccc(C2CC(n3ccnc3)c3ccccc3N2)cc1 (stereo not given) | 168 to 170
34 | Brc1csc(-c2cn([C@H]3CN4CCC3CC4)nn2)c1 | 106
35 | COc1ccc(-n2c(=O)[nH]c3c(C(N)=O)nc(-c4cccc(O)c4)nc32)cc1 | 386 to 388
36 | Cc1cnc(-n2ccc(C(F)(F)F)n2)nc1Oc1csc(C(F)(F)F)c1 | 113 to 115
37 | CN1C(=O)CCCC1(O)C=Cc1ccccc1 (stereo not given) | 108 to 112
38 | CN(CC1CCCCN1CC(=O)N1c2ccccc2NC(=O)c2ccccc21)C1CCCCC1 (stereo not given) | 146 to 148
39 | CC(Cl)c1nnc2n1-c1ccc(Cl)cc1C(c1ccccc1)=NC2 (stereo not given) | 154 to 156
40 | CC(C)(c1ccc(O)cc1)c1ccc(N2C(=O)C=CC2=O)cc1 | 168 to 171
41 | CN1c2cscc2CNc2ccccc21 | 125 to 127
42 | CS(=O)(=O)c1cc(C(=O)N=C(N)N)ccc1N1CCC(N)CC1 | 239 to 241
43 | COc1cc(OC)nc(NC(=O)NS(=O)(=O)c2c(C(=O)C3CC3)cnn2C)n1 | 189 to 192
44 | O=C(OC1=CC(O)=CC(C=Cc2ccc(O)cc2)(C(=O)c2cc(O)c(O)c(O)c2)C1)c1cc(O)c(O)c(O)c1 (stereo not given) | 210 to 212
45 | COC(=O)c1ccc2cc(C=O)ccc2c1 | 127
46 | O=C1C=CC(=O)c2cc(C(F)(F)F)ccc21 | 80 to 85
47 | FC(F)(F)Sc1ccc(-c2ccc(Cl)cc2)[nH]1 | 34 to 39
48 | CN(C)C1CCN(c2nc(NCc3ccccc3)c3ncnc(NCc4ccccc4)c3n2)CC1 | 143 to 145
49 | O=S(=O)(Nc1ccc2c(OCc3ccc(OC(F)(F)F)cc3)cccc2c1)C(F)(F)F | 80 to 82
50 | CC1(C)c2ccccc2C(C#N)c2ccccc21 | 91 to 92

Row | Compound | melting point [°C]
51 | CCc1noc(-c2cc3c4cc(S(=O)(=O)N(C)C)ccc4n(CCCCl)c3cn2)n1 | 223 to 224
52 | N#Cc1ccc2c(c1)Sc1ccc(N)cc1C=C2 | 181 to 183
53 | CN(C)c1ccc(/C=C/c2ccc(F)c(F)c2)cc1 | 159 to 160
54 | C[C@H]1[C@H]2O[C@H]2C(S(=O)(=O)c2ccccc2)=C[C@H](C)[C@H]1O[Si](C)(C)C(C)(C)C | 89 to 90
55 | O=C(Cc1ccc(Cl)c(Cl)c1)NC1N=C(C2CC2)c2ccccc2N(CC(F)(F)F)C1=O (single isomer, unassigned; (+)) | 193 to 194
56 | COc1ccc(C(c2ccc(OC)cc2)c2cnccc2C(=O)O)cc1 | 122 to 124
57 | CC(N1CCN(C=O)CC1)C(O)(Cn1cncn1)c1ccc(F)cc1F (stereo not given) | 118 to 120
58 | CC(c1oc2ccccc2c(=O)c1-c1cccc(F)c1)n1nc(-c2cc(O)cc(F)c2)c2c(N)ncnc21 (stereo not given) | 271 to 273
59 | Cc1nc2cccc(CNC(=O)OC(C)(C)C)c2c(=O)n1C1CCC(=O)NC1=O (stereo not given) | 206 to 208
60 | CCCc1nc(C)c2c(=O)[nH]c(C)nn12 | 228 to 231
61 | CN1Cc2ccccc2[C@H]2c3cccc4c3c(cn4C)C[C@@H]21 (relative stereo) | 184 to 185
62 | CC(C)c1cn2cccc(C=O)c2n1 | 70 to 72
63 | CC(=O)Nc1cc(Br)ccc1Sc1ccc([N+](=O)[O-])cc1[N+](=O)[O-] | 194 to 196
64 | COc1cc(C(=O)N2CCC(CCN3CCC(Nc4nc5ccccc5n4Cc4ccccn4)CC3)(c3ccc(F)c(F)c3)C2)cc(OC)c1OC (stereo not given) | 101 to 107
65 | CS(=O)(=O)OCc1cc(-c2ccc3c(c2)CCO3)nn(CC=Cc2ccc(Cl)cc2)c1=O | 135 to 140
66 | CC(C)c1cc(O)cc(C(C)C)c1NC(=O)CN1CCN(CCSc2nc3ccccc3[nH]2)CC1 | 241 to 242
67 | CCC(C(O)c1ccc(Cl)cc1)n1ncn(-c2ccc(N3CCN(c4nc5ccccc5o4)CC3)cc2)c1=O (stereo not given) | 221
68 | Cc1ccc(C(=O)c2cccc(C(C)C#N)c2)cc1 (stereo not given) | 52 to 55
69 | Cc1ccc(Cl)cc1N1CCN(c2nc(=O)c3cc(C(F)(F)F)cc([N+](=O)[O-])c3s2)CC1 | 158 to 161
70 | O=c1cc(-c2cccc(F)c2)oc(N2CCOCC2)c1 | 169 to 170
